Laboratory results taken from ChEMBL document CHEMBL5465560, “Selectivity Literature for EUbOPEN Chemogenomic Library” (2024).

Experiments:
[1] = target: T1, Serine/threonine-protein kinase ICK (Homo sapiens) (UniProt Q9UPZ9); assay: Selectivity interaction (KinomeScan (DiscoverX)) EUB0000695a ICK; settings: at 100 nM
T1 sequence (whole entry): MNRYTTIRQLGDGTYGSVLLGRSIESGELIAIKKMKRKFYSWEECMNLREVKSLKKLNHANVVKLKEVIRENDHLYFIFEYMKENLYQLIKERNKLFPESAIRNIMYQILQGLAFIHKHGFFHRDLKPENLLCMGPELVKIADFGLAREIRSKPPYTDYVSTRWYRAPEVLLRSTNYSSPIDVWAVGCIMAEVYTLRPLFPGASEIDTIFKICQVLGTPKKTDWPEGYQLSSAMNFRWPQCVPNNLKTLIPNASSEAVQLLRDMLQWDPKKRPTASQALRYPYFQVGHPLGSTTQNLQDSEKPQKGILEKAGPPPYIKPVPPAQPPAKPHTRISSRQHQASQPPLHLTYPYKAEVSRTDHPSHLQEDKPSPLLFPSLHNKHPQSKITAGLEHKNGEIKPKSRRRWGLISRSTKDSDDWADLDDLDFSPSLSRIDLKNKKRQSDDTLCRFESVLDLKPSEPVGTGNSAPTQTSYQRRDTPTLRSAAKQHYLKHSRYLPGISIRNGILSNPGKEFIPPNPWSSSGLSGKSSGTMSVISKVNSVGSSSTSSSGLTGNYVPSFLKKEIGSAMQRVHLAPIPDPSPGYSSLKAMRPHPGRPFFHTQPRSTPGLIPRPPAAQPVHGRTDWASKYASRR

[2] = target: Ribosomal protein S6 kinase alpha-5 (Homo sapiens) (UniProt O75582); assay: Selectivity interaction (KinomeScan (DiscoverX)) EUB0000666a RPS6KA5; settings: at 10 µM
Chain of Ribosomal protein S6 kinase alpha-5 (Homo sapiens) (O75582 whole entry, looked up): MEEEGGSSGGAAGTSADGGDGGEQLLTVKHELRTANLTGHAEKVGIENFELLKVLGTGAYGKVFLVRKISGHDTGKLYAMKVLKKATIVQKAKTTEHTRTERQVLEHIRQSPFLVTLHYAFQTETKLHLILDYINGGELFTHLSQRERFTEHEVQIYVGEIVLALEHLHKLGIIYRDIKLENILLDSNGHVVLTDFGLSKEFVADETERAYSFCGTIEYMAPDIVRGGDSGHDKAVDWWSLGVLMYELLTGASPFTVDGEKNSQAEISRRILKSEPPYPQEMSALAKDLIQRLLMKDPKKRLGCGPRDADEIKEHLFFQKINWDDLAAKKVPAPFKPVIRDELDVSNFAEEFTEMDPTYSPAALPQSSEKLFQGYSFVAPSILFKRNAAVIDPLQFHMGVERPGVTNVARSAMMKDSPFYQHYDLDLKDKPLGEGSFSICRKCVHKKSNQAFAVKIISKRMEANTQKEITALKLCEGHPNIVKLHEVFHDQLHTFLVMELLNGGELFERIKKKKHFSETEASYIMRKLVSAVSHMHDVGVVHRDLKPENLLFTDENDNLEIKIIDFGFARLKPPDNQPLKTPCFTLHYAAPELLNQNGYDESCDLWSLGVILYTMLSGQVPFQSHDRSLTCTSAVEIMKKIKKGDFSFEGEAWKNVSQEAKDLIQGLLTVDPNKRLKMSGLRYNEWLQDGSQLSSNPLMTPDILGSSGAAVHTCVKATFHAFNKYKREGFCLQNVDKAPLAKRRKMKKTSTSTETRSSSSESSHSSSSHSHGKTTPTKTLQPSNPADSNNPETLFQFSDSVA

[3] = target: T2, Mitogen-activated protein kinase kinase kinase kinase 3 (Homo sapiens) (UniProt Q8IVH8); assay: Selectivity interaction (KinomeScan (DiscoverX)) EUB0001619a MAP4K3; settings: at 1 µM
T2 sequence (whole entry): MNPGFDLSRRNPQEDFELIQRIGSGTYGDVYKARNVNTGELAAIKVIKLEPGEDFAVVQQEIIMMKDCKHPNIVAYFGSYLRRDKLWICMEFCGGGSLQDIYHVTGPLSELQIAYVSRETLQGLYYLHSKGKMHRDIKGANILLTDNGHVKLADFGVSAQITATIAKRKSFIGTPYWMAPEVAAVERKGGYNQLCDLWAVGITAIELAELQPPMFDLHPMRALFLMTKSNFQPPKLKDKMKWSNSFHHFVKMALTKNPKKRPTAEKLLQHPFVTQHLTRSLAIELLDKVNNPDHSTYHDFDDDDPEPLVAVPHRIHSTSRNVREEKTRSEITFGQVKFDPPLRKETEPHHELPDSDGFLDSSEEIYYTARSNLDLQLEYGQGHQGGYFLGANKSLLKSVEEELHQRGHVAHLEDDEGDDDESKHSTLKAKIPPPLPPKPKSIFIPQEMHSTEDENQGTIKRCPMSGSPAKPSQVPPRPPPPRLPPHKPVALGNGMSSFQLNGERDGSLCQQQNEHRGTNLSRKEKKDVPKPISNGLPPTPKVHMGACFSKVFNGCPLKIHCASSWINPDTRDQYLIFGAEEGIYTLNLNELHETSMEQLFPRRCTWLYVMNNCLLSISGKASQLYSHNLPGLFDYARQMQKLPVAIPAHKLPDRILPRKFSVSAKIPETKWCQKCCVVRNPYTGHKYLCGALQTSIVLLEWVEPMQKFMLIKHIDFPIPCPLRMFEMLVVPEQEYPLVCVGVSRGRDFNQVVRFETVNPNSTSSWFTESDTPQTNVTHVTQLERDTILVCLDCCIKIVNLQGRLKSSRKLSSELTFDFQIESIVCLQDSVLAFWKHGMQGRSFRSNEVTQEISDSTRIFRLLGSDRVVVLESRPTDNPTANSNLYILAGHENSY

[4] = target: T3, NUAK family SNF1-like kinase 2 (Homo sapiens) (UniProt Q9H093); assay: Selectivity interaction (ActivX KiNativ screen (ex vivo kinase selectivity in human PBMCs)) EUB0001619a NUAK2; type: cell-based; settings: PBMC, at 1 µM
T3 sequence (whole entry): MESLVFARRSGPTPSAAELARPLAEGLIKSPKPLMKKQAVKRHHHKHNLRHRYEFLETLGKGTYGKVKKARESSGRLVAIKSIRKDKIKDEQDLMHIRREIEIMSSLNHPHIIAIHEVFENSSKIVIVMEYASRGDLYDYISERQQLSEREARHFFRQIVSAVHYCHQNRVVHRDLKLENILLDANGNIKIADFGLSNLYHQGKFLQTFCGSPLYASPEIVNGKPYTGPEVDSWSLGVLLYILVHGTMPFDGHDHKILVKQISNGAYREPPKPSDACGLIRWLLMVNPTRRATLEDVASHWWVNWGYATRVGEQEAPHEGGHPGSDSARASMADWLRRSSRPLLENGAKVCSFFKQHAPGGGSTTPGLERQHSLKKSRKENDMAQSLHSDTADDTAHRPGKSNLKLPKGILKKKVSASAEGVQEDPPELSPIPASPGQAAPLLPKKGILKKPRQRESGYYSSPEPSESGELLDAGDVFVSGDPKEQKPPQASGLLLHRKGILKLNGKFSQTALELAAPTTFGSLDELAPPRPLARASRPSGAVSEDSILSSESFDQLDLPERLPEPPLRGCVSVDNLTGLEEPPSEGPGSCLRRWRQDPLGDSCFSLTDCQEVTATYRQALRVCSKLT

[5] = target: Macrophage colony-stimulating factor 1 receptor (Homo sapiens) (UniProt P07333); assay: Selectivity interaction (Kinase panel (Invitrogen)) EUB0000639a CSF1R; settings: at 200 nM
Chain of Macrophage colony-stimulating factor 1 receptor (Homo sapiens) (P07333 whole entry): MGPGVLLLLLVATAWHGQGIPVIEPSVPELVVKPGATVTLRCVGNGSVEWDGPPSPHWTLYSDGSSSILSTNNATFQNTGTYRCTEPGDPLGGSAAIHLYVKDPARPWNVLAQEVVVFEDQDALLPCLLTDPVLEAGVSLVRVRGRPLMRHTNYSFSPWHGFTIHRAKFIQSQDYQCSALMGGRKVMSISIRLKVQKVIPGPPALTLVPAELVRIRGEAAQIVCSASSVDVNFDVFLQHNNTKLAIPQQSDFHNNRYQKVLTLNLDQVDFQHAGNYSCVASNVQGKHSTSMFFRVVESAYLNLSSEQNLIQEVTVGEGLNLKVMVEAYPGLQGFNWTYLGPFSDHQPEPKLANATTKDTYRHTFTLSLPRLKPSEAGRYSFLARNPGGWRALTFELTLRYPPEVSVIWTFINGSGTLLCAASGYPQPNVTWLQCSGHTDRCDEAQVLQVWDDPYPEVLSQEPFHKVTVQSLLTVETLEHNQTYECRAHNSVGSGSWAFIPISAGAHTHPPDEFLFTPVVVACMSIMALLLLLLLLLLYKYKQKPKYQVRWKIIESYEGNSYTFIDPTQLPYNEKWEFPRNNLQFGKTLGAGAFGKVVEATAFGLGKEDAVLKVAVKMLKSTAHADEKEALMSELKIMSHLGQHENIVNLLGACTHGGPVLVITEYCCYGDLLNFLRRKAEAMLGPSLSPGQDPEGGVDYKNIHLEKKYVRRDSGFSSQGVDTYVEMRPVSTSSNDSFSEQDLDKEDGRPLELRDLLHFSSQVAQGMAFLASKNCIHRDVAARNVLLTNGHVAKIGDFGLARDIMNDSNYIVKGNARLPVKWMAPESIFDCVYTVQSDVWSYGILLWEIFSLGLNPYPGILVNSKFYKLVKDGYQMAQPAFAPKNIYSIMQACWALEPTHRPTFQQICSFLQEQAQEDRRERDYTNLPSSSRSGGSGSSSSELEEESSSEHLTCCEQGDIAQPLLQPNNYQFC

SMILES: Cc1cc(F)c(C(=O)Nc2cccc(-c3nncn3C(C)C)n2)cc1-n1cnc(C2CC2)c1
- % of control [1]: 100%

SMILES: O=C(NOC[C@H](O)CO)c1ccc(F)c(F)c1Nc1ccc(I)cc1F
- % of control [2]: 87%

SMILES: N#Cc1cccc(-c2c[nH]c3ncnc(N4CCOCC4)c23)c1
- % of control [3]: 4.8%
- % of inhibition [4]: 18%

SMILES: CC[C@@H]1[C@H](F)C(=O)N[C@@H]1COc1nccc2cc(C(N)=O)c(OC)cc12 [ZIMLOVISERTIB]
- % of inhibition [5]: 5.5%
